# Values quoted from earlier work as cited in US11980625B2, “Ganaxolone for use in treating tuberous sclerosis complex” (Marinus Pharmaceuticals, Inc., priority 2019, dated 2024).
# Where two headings read alike, the source gives them in different places.
# Legend:
# [1] = system: patients with TSC-related epilepsy; details: 18 weeks, cited from earlier work
# [2] = human plasma; cited from earlier work
# [3] = system: patients with TSC-related epilepsy; details: Phase 2, open-label, 3 months; cited from earlier work
# [4] = system: patients with TSC-related epilepsy; details: 16 weeks, cited from earlier work
smiles,measurement,setting,value
CO[C@H]1C[C@@H]2CC[C@@H](C)[C@@](O)(O2)C(=O)C(=O)N2CCCC[C@H]2C(=O)O[C@H]([C@H](C)C[C@@H]2CC[C@@H](OCCO)[C@H](OC)C2)CC(=O)[C@H](C)/C=C(\C)[C@@H](O)[C@@H](OC)C(=O)[C@H](C)C[C@H](C)/C=C/C=C/C=C/1C [AFINITOR ®],Median % change in seizure freq (Drug Response),"[1]; Phase 3, High-exposure",High-exposure: −39.6%
same,Median % change in seizure freq (Drug Response),"[1]; Phase 3, Low-exposure",Low-exposure: −29.3%
"CC(=O)[C@H]1CC[C@H]2[C@@H]3CC[C@H]4C[C@H](O)CC[C@]4(C)[C@H]3CC[C@]12C [Allopregnanolone, 3α,5α-tetrahydroprogesterone, reference compound]",half-life,[2],about 45 minutes
C=C(C)[C@@H]1CCC(C)=C[C@H]1c1c(O)cc(CCCCC)cc1O [EPIDIOLEX ®],Median % change in seizure freq (Drug Response),[3],−48.8%
same,Median % change in seizure freq (Drug Response),"[4]; Phase 3, 25 mg/kg/day",25 mg/kg/day: −48.6%
same,Median % change in seizure freq (Drug Response),"[4]; Phase 3, High-exposure",High-exposure: −47.5%
